Data taken from US4570006A, “Amidine compound, process for producing same and anti-complement agent comprising same” (Torii & Co. Ltd., priority 1981, dated 1986).

How the values were obtained:
complement = test: Inhibition of complement mediated hemolysis; format: cell-based
Description: The complement mediated hemolysis is widely used as a means to determine the titration of complement. The principle of this method is based on the fact that hemolysis if caused by the activation of complement, when the latter is added to a complex (immune complex) of erythrocytes and the antibody thereof. The degree of hemolysis varies in proportion to the amount of complement added. Therefore, when a known amount of complement admixed with a Cl esterase inhibitor is used, the hemolysis must be suppressed in proportion to the inhibitory activity.
The anti-Cl esterase (Clr, Cls) activity was determined according to the method of Okamura et al. [K. Okamura, M. Muramatsu and B. Fujii, Biochem. Biophys. […] The figures in Table 2 have the following meanings: […]

Thrombin = Thrombin (Homo sapiens, UniProt P00734); test: biochemical; settings: TAME hydrolysis; read-out: ID50, thrombin
Clr = biological target: T1, Clr (Homo sapiens, UniProt P00736); test: Anti-Cl esterase activity, Clr (AAME hydrolysis); format: biochemical; settings: hydrolysis of AAME; read-out: Anti-Cl activity, Clr (ID50)
T1 sequence (P00736 464-705 limits assumed): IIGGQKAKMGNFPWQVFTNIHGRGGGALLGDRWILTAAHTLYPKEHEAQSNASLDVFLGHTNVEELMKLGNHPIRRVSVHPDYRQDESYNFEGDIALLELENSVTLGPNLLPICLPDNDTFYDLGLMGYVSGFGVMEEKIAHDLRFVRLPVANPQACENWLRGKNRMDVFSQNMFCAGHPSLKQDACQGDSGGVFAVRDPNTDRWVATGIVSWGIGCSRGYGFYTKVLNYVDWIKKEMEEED
T1 sequence (P00736 18-463 limits assumed): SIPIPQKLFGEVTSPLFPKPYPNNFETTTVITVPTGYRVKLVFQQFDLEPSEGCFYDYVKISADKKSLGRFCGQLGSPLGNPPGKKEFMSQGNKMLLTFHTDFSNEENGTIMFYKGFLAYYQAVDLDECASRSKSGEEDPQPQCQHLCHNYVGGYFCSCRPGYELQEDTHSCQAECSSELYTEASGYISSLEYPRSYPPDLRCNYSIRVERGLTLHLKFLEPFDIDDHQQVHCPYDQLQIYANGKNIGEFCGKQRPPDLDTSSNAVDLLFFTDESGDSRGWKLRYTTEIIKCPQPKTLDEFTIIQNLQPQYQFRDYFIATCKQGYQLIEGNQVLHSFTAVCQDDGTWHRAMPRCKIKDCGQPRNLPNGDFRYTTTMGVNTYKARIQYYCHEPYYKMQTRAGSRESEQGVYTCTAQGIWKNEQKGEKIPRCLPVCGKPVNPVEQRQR
Description: The anti-Cl esterase ([…]) activity was determined according to the method of Okamura et al. [K. Okamura, M. Muramatsu and B. Fujii, Biochem. Biophys.

Trypsin = biological target: T2, Trypsin (Bos taurus, UniProt P00760); test: Anti-trypsin activity (inhibition of TAME hydrolysis); format: biochemical; settings: read-out: ID50, trypsin
T2 sequence (P00760 24-246): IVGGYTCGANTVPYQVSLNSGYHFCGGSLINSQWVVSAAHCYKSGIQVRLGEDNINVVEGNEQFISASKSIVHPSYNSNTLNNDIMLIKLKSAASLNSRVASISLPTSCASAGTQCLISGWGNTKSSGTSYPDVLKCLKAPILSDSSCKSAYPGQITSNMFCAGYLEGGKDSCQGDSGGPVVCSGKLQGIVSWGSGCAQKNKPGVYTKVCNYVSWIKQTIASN
Description: (§1) The anti-trypsin, anti-plasmin, anti-kallikrein and anti-thrombin activities were determined according to the method of Muramatsu et al. [M. Muramatsu, T. Onishi, S. Makino, Y. Hayashi and S. Fujii, J. of Biochem., 58, 214 (1965)]. The data summarized in Table 1 are expressed in terms of molar concentration (ID50) of the test compound which inhibits 50% of the activity of each enzyme to hydrolyze TAME (tosylarginine methyl ester). The compound No. corresponds to the compound number shown in Examples.

Kallikrein = test: Anti-kallikrein activity (inhibition of TAME hydrolysis); format: biochemical; settings: read-out: ID50, kallikrein
Description: as §1

Plasmin = Plasmin (Homo sapiens, UniProt P00747); test: Anti-plasmin activity (inhibition of TAME hydrolysis); format: biochemical; settings: read-out: ID50, plasmin
Description: as §1

Cls = biological target: T3, Cls (Homo sapiens, UniProt P09871); test: Anti-Cl esterase activity, Cls (ATEE hydrolysis); format: biochemical; settings: hydrolysis of ATEE; read-out: Anti-Cl activity, Cls (50% inhibition)
T3 sequence (P09871 438-688 limits assumed): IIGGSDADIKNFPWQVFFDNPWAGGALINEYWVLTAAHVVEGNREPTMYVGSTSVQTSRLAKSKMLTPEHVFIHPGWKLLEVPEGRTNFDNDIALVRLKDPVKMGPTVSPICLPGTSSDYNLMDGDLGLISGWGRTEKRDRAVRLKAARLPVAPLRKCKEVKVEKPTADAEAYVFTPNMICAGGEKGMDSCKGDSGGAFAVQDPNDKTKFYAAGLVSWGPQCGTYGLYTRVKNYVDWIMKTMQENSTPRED
T3 sequence (P09871 16-437 limits assumed): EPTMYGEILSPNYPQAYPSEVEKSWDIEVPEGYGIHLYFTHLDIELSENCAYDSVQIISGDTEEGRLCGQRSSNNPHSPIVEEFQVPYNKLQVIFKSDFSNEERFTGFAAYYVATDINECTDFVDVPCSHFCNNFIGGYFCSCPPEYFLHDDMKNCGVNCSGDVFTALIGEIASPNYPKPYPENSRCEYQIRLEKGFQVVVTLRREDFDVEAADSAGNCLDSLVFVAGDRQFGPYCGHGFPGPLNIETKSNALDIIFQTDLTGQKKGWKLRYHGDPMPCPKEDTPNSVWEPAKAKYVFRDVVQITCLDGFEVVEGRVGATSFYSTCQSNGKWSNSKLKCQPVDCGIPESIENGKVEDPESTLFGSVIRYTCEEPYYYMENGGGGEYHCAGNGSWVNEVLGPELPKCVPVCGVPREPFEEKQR
Description: The anti-Cl esterase (Clr, Cls) activity was determined according to the method of Okamura et al. [K. Okamura, M. Muramatsu and B. Fujii, Biochem. Biophys. […] The figures in Table 2 have the following meanings:
Cls: Molar concentration of the test compound which inhibits 50% of the ability of Cls to hydrolyse ATEE (acetyltyrosin ethyl ester).

Sequence of Plasmin (P00747 581-810 limits assumed, species assumed): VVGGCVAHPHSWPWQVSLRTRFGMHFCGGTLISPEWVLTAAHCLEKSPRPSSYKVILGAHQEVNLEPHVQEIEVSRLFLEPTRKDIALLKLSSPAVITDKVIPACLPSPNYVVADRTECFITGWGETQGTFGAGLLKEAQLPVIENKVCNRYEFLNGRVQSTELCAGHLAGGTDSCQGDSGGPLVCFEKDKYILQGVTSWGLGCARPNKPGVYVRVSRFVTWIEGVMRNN
Sequence of Plasmin (P00747 97-580 limits assumed, species assumed): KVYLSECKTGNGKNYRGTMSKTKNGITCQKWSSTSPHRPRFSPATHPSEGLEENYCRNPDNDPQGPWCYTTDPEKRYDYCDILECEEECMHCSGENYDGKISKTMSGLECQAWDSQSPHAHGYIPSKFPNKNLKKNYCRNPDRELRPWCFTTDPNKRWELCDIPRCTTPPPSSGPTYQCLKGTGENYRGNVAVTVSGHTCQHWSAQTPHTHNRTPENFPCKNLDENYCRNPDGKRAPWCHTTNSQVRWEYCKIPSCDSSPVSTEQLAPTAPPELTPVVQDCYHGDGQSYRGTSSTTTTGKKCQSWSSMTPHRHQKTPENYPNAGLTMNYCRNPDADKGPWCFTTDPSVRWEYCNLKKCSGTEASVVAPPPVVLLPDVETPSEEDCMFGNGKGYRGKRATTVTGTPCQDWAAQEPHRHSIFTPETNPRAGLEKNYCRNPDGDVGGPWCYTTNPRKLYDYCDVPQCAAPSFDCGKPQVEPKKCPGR

Row | IC50 (Thrombin) | IC50 (Trypsin) | IC50 (Kallikrein) | IC50 (Plasmin) | SMILES | Inhibition of complement mediated hemolysis (%) (complement; compound at 1 × 10^-4) | Inhibition of complement mediated hemolysis (%) (complement; compound at 1 × 10^-5) | Inhibition of complement mediated hemolysis (%) (complement; compound at 1 × 10^-6) | Inhibition of complement mediated hemolysis (%) (complement; compound at 1 × 10^-7) | IC50 (Clr) | IC50 (Cls)
1 | > 10 µM | > 10 µM | > 10 µM | > 10 µM | N=C(N)c1ccc(OC(=O)CCN)c(C(=O)c2ccccc2)c1 [Compound 11, 4-amidino-2-benzoylphenyl 3-aminopropionate] | 17.4% | 2.5% | 2.5% | 3.5% | > 10 µM | –
2 | – | 0.3 µM | > 10 µM | 0.6 µM | COC(=O)c1cc(C(=N)N)ccc1OC(=O)c1ccccc1 [Compound 25, 4-amidino-2-methoxycarbonylphenyl benzoate] | 100.0% | 93.1% | 38.6% | 11.6% | 4 µM | 0.2 µM
3 | – | – | – | – | Cc1cccc(Nc2ccccc2C(=O)Oc2ccc(C(=N)N)cc2C(=O)c2ccccc2)c1C [Compound 87] | 0% | 0% | 0% | 0% | > 10 µM | 5 µM
4 | < 0.01 µM | 0.03 µM | 0.4 µM | 0.2 µM | CSc1ccc(C(=O)Oc2ccc(C(=N)N)cc2C(=O)c2ccccc2)cc1 [Compound 49] | 83.8% | 94.6% | 97.5% | 75.1% | 1 µM | –
5 | > 10 µM | > 10 µM | > 10 µM | > 10 µM | CC(=O)Oc1ccc(C(=N)N)cc1[N+](=O)[O-] [Compound 2, 4-amidino-2-nitrophenyl acetate] | 97.3% | 30.1% | 3.9% | 2.1% | – | –
6 | – | – | – | – | COc1cc(C(=N)N)ccc1OC(=O)c1ccc([N+](=O)[O-])c(C)c1 [Compound 80] | 66.5% | 6.9% | 0% | 0% | > 10 µM | > 10 µM
7 | – | – | – | – | COC(=O)c1cc(C(=N)N)ccc1OC(=O)c1ccc(F)cc1 [Compound 84] | 98.6% | 67.7% | 2.0% | 0% | > 10 µM | 0.4 µM
8 | – | – | – | – | COC(=O)c1cc(C(=N)N)ccc1OC(=O)c1ccc(NC(=N)N)cc1 [Compound 72] | 100% | 87.8% | 10.8% | 0% | 1 µM | 0.2 µM
9 | – | – | – | – | N=C(N)Nc1ccc(C(=O)Oc2ccc(C(=N)N)cc2C(=O)c2ccccc2)c(Cl)c1 [Compound 77] | 97.3% | 48.9% | 1.8% | 0% | > 10 µM | 0.8 µM
10 | – | – | – | – | N=C(N)c1ccc(OC(=O)c2ccc(F)cc2)c([N+](=O)[O-])c1 [Compound 85] | 98.6% | 97.9% | 67.1% | 7.0% | 0.6 µM | 0.5 µM
11 | 2 µM | > 10 µM | > 10 µM | > 10 µM | N=C(N)c1ccc(OC(=O)CCNC(=O)OCc2ccccc2)c(C(=O)c2ccccc2)c1 [Compound 10, 4-amidino-2-benzoylphenyl 3-benzyloxycarbonylaminopropionate] | 95.9% | 80.3% | 17.0% | 2.3% | > 10 µM | –
12 | – | – | – | – | N#Cc1ccc(C(=O)Oc2ccc(C(=N)N)cc2C(=O)c2ccccc2)cc1 [Compound 83] | 100% | 90.2% | 12.9% | – | 9 µM | 4 µM
13 | – | – | – | – | CCC(=Cc1ccc(NC(=N)N)cc1)C(=O)Oc1ccc(C(=N)N)cc1C(=O)c1ccccc1 [Compound 74] | 55.4% | 5.7% | 3.6% | 0% | > 10 µM | 3 µM
14 | – | – | – | – | COc1cc(C(=N)N)ccc1OC(=O)c1ccc(NC(=N)N)cc1Cl [Compound 76] | 34.8% | 4.8% | 0% | 0% | > 10 µM | > 10 µM
15 | – | 2 µM | 3 µM | 2 µM | N=C(N)c1ccc(OC(=O)C2CC2)c(C(=O)c2ccccc2)c1 [Compound 8] | – | 90.5% | 22.0% | 0% | > 10 µM | –
16 | – | – | – | – | Cc1cc(C(=O)Oc2ccc(C(=N)N)cc2C(=O)c2ccccc2)ccc1[N+](=O)[O-] [Compound 81] | 98.2% | 71.6% | 4.2% | 0% | > 10 µM | > 10 µM
